# Measurements reported in US8192962B2, “Processes for detecting toxic substances” (Daikin Industries, Ltd., priority 2001, dated 2012).
# Tested on: Genes belonging to other category
# Test: DNA chip mRNA expression in yeast, genes belonging to other category (Table 9)
# Type: cell-based, Saccharomyces cerevisiae S288C
# Outline: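 Values are treated/untreated fluorescence ratios from a whole-genome yeast DNA chip hybridized over 12 hours at 65° C with Cy3- or Cy5-labelled cDNA from poly(A) mRNA. Log-phase S288C yeast in YPD at 25° C had received a single toxic chemical for two hours, dosed to slow growth without killing.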
smiles,measurement,setting,value
"COc1cc(CNC(=O)CCCCC=CC(C)C)ccc1O [(12), 8-methyl-N-vanillyl-6-nonenamide]",The level of expressed mRNA in the presence of chemical substance/The level of expressed mRNA in the absence of chemical substance,yeast gene YAR010C,1.0
same,The level of expressed mRNA in the presence of chemical substance/The level of expressed mRNA in the absence of chemical substance,yeast gene YBL005W-A,1.6
same,The level of expressed mRNA in the presence of chemical substance/The level of expressed mRNA in the absence of chemical substance,yeast gene YBL041W,1.6
same,The level of expressed mRNA in the presence of chemical substance/The level of expressed mRNA in the absence of chemical substance,yeast gene YBL043W,0.9
same,The level of expressed mRNA in the presence of chemical substance/The level of expressed mRNA in the absence of chemical substance,yeast gene YBL078C,3.1
same,The level of expressed mRNA in the presence of chemical substance/The level of expressed mRNA in the absence of chemical substance,yeast gene YBL102W,0.9
same,The level of expressed mRNA in the presence of chemical substance/The level of expressed mRNA in the absence of chemical substance,yeast gene YBR212W,0.9
same,The level of expressed mRNA in the presence of chemical substance/The level of expressed mRNA in the absence of chemical substance,yeast gene YBR214W,1.2
same,The level of expressed mRNA in the presence of chemical substance/The level of expressed mRNA in the absence of chemical substance,yeast gene YCL020W,1.5
same,The level of expressed mRNA in the presence of chemical substance/The level of expressed mRNA in the absence of chemical substance,yeast gene YCL027W,0.8
same,The level of expressed mRNA in the presence of chemical substance/The level of expressed mRNA in the absence of chemical substance,yeast gene YCL067C,1.0
same,The level of expressed mRNA in the presence of chemical substance/The level of expressed mRNA in the absence of chemical substance,yeast gene YCR004C,0.8
same,The level of expressed mRNA in the presence of chemical substance/The level of expressed mRNA in the absence of chemical substance,yeast gene YCR067C,0.9
same,The level of expressed mRNA in the presence of chemical substance/The level of expressed mRNA in the absence of chemical substance,yeast gene YCR071C,1.1
same,The level of expressed mRNA in the presence of chemical substance/The level of expressed mRNA in the absence of chemical substance,yeast gene YCR088W,1.3
same,The level of expressed mRNA in the presence of chemical substance/The level of expressed mRNA in the absence of chemical substance,yeast gene YCR096C,1.0
same,The level of expressed mRNA in the presence of chemical substance/The level of expressed mRNA in the absence of chemical substance,yeast gene YDL008W,1.2
same,The level of expressed mRNA in the presence of chemical substance/The level of expressed mRNA in the absence of chemical substance,yeast gene YDL119C,0.9
same,The level of expressed mRNA in the presence of chemical substance/The level of expressed mRNA in the absence of chemical substance,yeast gene YDL197C,0.8
same,The level of expressed mRNA in the presence of chemical substance/The level of expressed mRNA in the absence of chemical substance,yeast gene YDL238C,0.9
same,The level of expressed mRNA in the presence of chemical substance/The level of expressed mRNA in the absence of chemical substance,yeast gene YDR055W,1.4
same,The level of expressed mRNA in the presence of chemical substance/The level of expressed mRNA in the absence of chemical substance,yeast gene YDR084C,0.7
same,The level of expressed mRNA in the presence of chemical substance/The level of expressed mRNA in the absence of chemical substance,yeast gene YDR085C,1.6
same,The level of expressed mRNA in the presence of chemical substance/The level of expressed mRNA in the absence of chemical substance,yeast gene YDR104C,1.1
same,The level of expressed mRNA in the presence of chemical substance/The level of expressed mRNA in the absence of chemical substance,yeast gene YDR115W,0.9
same,The level of expressed mRNA in the presence of chemical substance/The level of expressed mRNA in the absence of chemical substance,yeast gene YDR169C,0.9
same,The level of expressed mRNA in the presence of chemical substance/The level of expressed mRNA in the absence of chemical substance,yeast gene YDR188W,0.9
same,The level of expressed mRNA in the presence of chemical substance/The level of expressed mRNA in the absence of chemical substance,yeast gene YDR212W,0.8
same,The level of expressed mRNA in the presence of chemical substance/The level of expressed mRNA in the absence of chemical substance,yeast gene YDR259C,1.0
same,The level of expressed mRNA in the presence of chemical substance/The level of expressed mRNA in the absence of chemical substance,yeast gene YDR315C,0.6
same,The level of expressed mRNA in the presence of chemical substance/The level of expressed mRNA in the absence of chemical substance,yeast gene YDR329C,0.8
same,The level of expressed mRNA in the presence of chemical substance/The level of expressed mRNA in the absence of chemical substance,yeast gene YDR358W,1.1
same,The level of expressed mRNA in the presence of chemical substance/The level of expressed mRNA in the absence of chemical substance,yeast gene YDR378C,0.9
same,The level of expressed mRNA in the presence of chemical substance/The level of expressed mRNA in the absence of chemical substance,yeast gene YDR388W,0.8
same,The level of expressed mRNA in the presence of chemical substance/The level of expressed mRNA in the absence of chemical substance,yeast gene YDR403W,1.0
same,The level of expressed mRNA in the presence of chemical substance/The level of expressed mRNA in the absence of chemical substance,yeast gene YDR432W,0.7
same,The level of expressed mRNA in the presence of chemical substance/The level of expressed mRNA in the absence of chemical substance,yeast gene YDR481C,0.9
same,The level of expressed mRNA in the presence of chemical substance/The level of expressed mRNA in the absence of chemical substance,yeast gene YDR510W,1.4
same,The level of expressed mRNA in the presence of chemical substance/The level of expressed mRNA in the absence of chemical substance,yeast gene YDR515W,0.8
same,The level of expressed mRNA in the presence of chemical substance/The level of expressed mRNA in the absence of chemical substance,yeast gene YEL005C,0.8
same,The level of expressed mRNA in the presence of chemical substance/The level of expressed mRNA in the absence of chemical substance,yeast gene YEL042W,1.0
same,The level of expressed mRNA in the presence of chemical substance/The level of expressed mRNA in the absence of chemical substance,yeast gene YEL066W,0.8
same,The level of expressed mRNA in the presence of chemical substance/The level of expressed mRNA in the absence of chemical substance,yeast gene YER021W,1.0
same,The level of expressed mRNA in the presence of chemical substance/The level of expressed mRNA in the absence of chemical substance,yeast gene YER039C,0.9
same,The level of expressed mRNA in the presence of chemical substance/The level of expressed mRNA in the absence of chemical substance,yeast gene YER048C,0.8
same,The level of expressed mRNA in the presence of chemical substance/The level of expressed mRNA in the absence of chemical substance,yeast gene YER100W,0.8
same,The level of expressed mRNA in the presence of chemical substance/The level of expressed mRNA in the absence of chemical substance,yeast gene YER107C,0.7
same,The level of expressed mRNA in the presence of chemical substance/The level of expressed mRNA in the absence of chemical substance,yeast gene YER130C,1.0
same,The level of expressed mRNA in the presence of chemical substance/The level of expressed mRNA in the absence of chemical substance,yeast gene YFL022C,0.6
same,The level of expressed mRNA in the presence of chemical substance/The level of expressed mRNA in the absence of chemical substance,yeast gene YFL028C,1.1
same,The level of expressed mRNA in the presence of chemical substance/The level of expressed mRNA in the absence of chemical substance,yeast gene YFL043C,0.9
same,The level of expressed mRNA in the presence of chemical substance/The level of expressed mRNA in the absence of chemical substance,yeast gene YGL011C,1.0
same,The level of expressed mRNA in the presence of chemical substance/The level of expressed mRNA in the absence of chemical substance,yeast gene YGL094C,0.8
same,The level of expressed mRNA in the presence of chemical substance/The level of expressed mRNA in the absence of chemical substance,yeast gene YGL150C,0.8
same,The level of expressed mRNA in the presence of chemical substance/The level of expressed mRNA in the absence of chemical substance,yeast gene YGL158W,1.3
same,The level of expressed mRNA in the presence of chemical substance/The level of expressed mRNA in the absence of chemical substance,yeast gene YGL207W,0.7
same,The level of expressed mRNA in the presence of chemical substance/The level of expressed mRNA in the absence of chemical substance,yeast gene YGL229C,1.1
same,The level of expressed mRNA in the presence of chemical substance/The level of expressed mRNA in the absence of chemical substance,yeast gene YGR023W,0.9
same,The level of expressed mRNA in the presence of chemical substance/The level of expressed mRNA in the absence of chemical substance,yeast gene YGR036C,1.0
same,The level of expressed mRNA in the presence of chemical substance/The level of expressed mRNA in the absence of chemical substance,yeast gene YGR136W,1.2
same,The level of expressed mRNA in the presence of chemical substance/The level of expressed mRNA in the absence of chemical substance,yeast gene YGR189C,1.3
same,The level of expressed mRNA in the presence of chemical substance/The level of expressed mRNA in the absence of chemical substance,yeast gene YGR201C,1.9
same,The level of expressed mRNA in the presence of chemical substance/The level of expressed mRNA in the absence of chemical substance,yeast gene YGR213C,10.6
same,The level of expressed mRNA in the presence of chemical substance/The level of expressed mRNA in the absence of chemical substance,yeast gene YGR257C,0.9
same,The level of expressed mRNA in the presence of chemical substance/The level of expressed mRNA in the absence of chemical substance,yeast gene YGR270W,0.8
same,The level of expressed mRNA in the presence of chemical substance/The level of expressed mRNA in the absence of chemical substance,yeast gene YGR279C,0.7
same,The level of expressed mRNA in the presence of chemical substance/The level of expressed mRNA in the absence of chemical substance,yeast gene YHR004C,0.9
same,The level of expressed mRNA in the presence of chemical substance/The level of expressed mRNA in the absence of chemical substance,yeast gene YHR027C,1.0
same,The level of expressed mRNA in the presence of chemical substance/The level of expressed mRNA in the absence of chemical substance,yeast gene YHR071W,0.8
same,The level of expressed mRNA in the presence of chemical substance/The level of expressed mRNA in the absence of chemical substance,yeast gene YHR139C,1.6
same,The level of expressed mRNA in the presence of chemical substance/The level of expressed mRNA in the absence of chemical substance,yeast gene YHR142W,1.3
same,The level of expressed mRNA in the presence of chemical substance/The level of expressed mRNA in the absence of chemical substance,yeast gene YHR160C,0.8
same,The level of expressed mRNA in the presence of chemical substance/The level of expressed mRNA in the absence of chemical substance,yeast gene YHR161C,1.0
same,The level of expressed mRNA in the presence of chemical substance/The level of expressed mRNA in the absence of chemical substance,yeast gene YHR171W,0.8
same,The level of expressed mRNA in the presence of chemical substance/The level of expressed mRNA in the absence of chemical substance,yeast gene YHR195W,0.9
same,The level of expressed mRNA in the presence of chemical substance/The level of expressed mRNA in the absence of chemical substance,yeast gene YIL034C,1.0
same,The level of expressed mRNA in the presence of chemical substance/The level of expressed mRNA in the absence of chemical substance,yeast gene YIL062C,0.8
same,The level of expressed mRNA in the presence of chemical substance/The level of expressed mRNA in the absence of chemical substance,yeast gene YIL075C,0.8
same,The level of expressed mRNA in the presence of chemical substance/The level of expressed mRNA in the absence of chemical substance,yeast gene YIL123W,0.8
same,The level of expressed mRNA in the presence of chemical substance/The level of expressed mRNA in the absence of chemical substance,yeast gene YIL140W,1.0
same,The level of expressed mRNA in the presence of chemical substance/The level of expressed mRNA in the absence of chemical substance,yeast gene YJL073W,1.0
same,The level of expressed mRNA in the presence of chemical substance/The level of expressed mRNA in the absence of chemical substance,yeast gene YJL089W,1.2
same,The level of expressed mRNA in the presence of chemical substance/The level of expressed mRNA in the absence of chemical substance,yeast gene YJL113W,0.7
